Laboratory results reported in US20050170330A1, “Angiogensis models using nestin-expressing stem cells to image nascent blood vessels” (AntiCancer, Inc., priority 2003, published 2005).

Key:
[1] = tested on: B16F10 murine melanoma cells; test: Cord formation in vitro by B16F10 tumor cells; type: cell-based
Text: B16F10 murine melanoma cells are shown below to mimic endothelial cell behavior and the angiogenic process in vitro and in vivo. Cord formation in vitro by tumor cells is stimulated by hypoxia and vascular endothelial growth factor (VEGF) and inhibited by antibodies against VEGF and the VEGF KDR receptor (VEGF receptor 2).

[2] = tested on: ND-GFP vessels growing from transplanted hair follicles; test: ND-GFP vibrissa follicle transplantation into wounded nude-mouse skin, angiogenesis model; type: in vivo; conditions: nude mice with transplanted ND-GFP vibrissa follicles, compared with carrier-only control group
Text: For transplantation purposes, vibrissa follicles from ND-GFP transgenic mice is surgically obtained as discussed in Example 8. All follicles are then kept in DMEM/F-12 medium containing B-27 supplement (GIBCO/BRL).
Recipient nude mice are anesthetized, and a sample of full-thickness skin is folded and two neighboring full-thickness wounds ˜15 mm apart are made with a 2-mm biopsy punch. ND-GFP vibrissa follicles are then transplanted. The incision is closed with nylon sutures (6-0).
The mice are divided into an experimental group and a control group. The experimental group received a treatment series comprising vascular endothelial growth factor, a known angiogenesis promoting compound in a pharmaceutically acceptable carrier. The control group of mice receives only the carrier.
Following treatment, samples of subcutis of the transplanted mice are subsequently excised and directly observed by fluorescence microscopy and air-dried or prepared for frozen sections for immunohistochemical staining. […]
The mice are divided into an experimental group and a control group. The experimental group received a treatment series comprising vasoinhibin, a known angiogenesis inhibiting compound in a pharmaceutically acceptable carrier. The control group of mice receives only the carrier.

Q: For vascular endothelial growth factor, which “cord formation in vitro by tumor cells” value [1] is on record?
A: The value was “stimulated”.

Q: And the “angiogenic activity based on the amount of GFP activity” value [2]?
A: Its value is “higher degree of angiogenic activity”.
